Tests used:
[1] = system: H3K9 and H3K27 histone acetylation; experiment: Histone acetylation Western blot in cold-preserved human donor hearts; details: HTK containing VPA, cold (4° C.) static preservation 8 h
Procedure: (§1) Heart procurement for both human and pigs were performed as follows. A sternotomy is performed under general anesthesia. The pericardium is then opened to create a pericardial cradle for the heart. Heparin (300U/kg) administered through the right atrium or in a peripheral vein. After waiting 3 minute for adequate anticoagulation from heparin, a 9 Fr antegrade plegia infusion catheter is placed in the ascending aorta. Approximately 1 liter of autologous donor arterial blood is then collected into a collection bottle containing heparin. […] Subsequently, the ascending aorta is cross-clamped distal to the cardioplegia catheter and 1 liter of cold (4° C.) HTK solution is infused into the coronaries at a perfusion pressure of ˜80 mmHg to induce mechanical arrest. After excising the heart completely, it is transported to the back-table for infusion of 2 liters of HTK±VPA solution. After completion, the heart is stored in a solution identical to the perfusate at 4° C. on ice.
Pig hearts underwent ex-vivo perfusion after preservation for 4 or 10 hours. Approval for human heart procurement was obtained from the University of Michigan Institutional Review Board (HUM00131275). Human donor hearts from deceased brain death donors were procured as per standard clinical protocols from the Gift of Life Michigan (GOLM) organ procurement facility. […]

murine donor hearts = experiment: Murine ex-vivo heart perfusion after cold preservation; design: species or system mouse
Procedure: (§2) Male and female WT or Irg1^−/− mice (Jackson laboratories, Bar Harbor, ME) were anesthetized intraperitoneally with 80 mg/kg ketamine and 5 mg/kg xylazine, anticoagulated with heparin (2,000 U/kg iv), and the heart was rapidly exposed through a sternal incision. The aorta was cannulated and retrograde perfused in-situ with HTK solution±HDAC inhibitors. After cannulation, the heart dissected free, the left atrium was opened. For 4-OI (Cayman Chemical, 25374) experiments, donor mice were treated 4-OI (dissolved in 40% β-Cyclodextrin, 50 mg/kg intraperitoneally) or vehicle control (40% β-Cyclodextrin intraperitoneally) 2 hours prior to donor heart procurement. After dissection, the heart was stored at 4° C. with HTK or HTK with VPA for a pre-designated duration. The hearts were then mounted on a Radnoti mouse Langendorff apparatus (ADInstruments inc., Colorado Springs, CO) in constant-pressure mode (˜70 mmHg) with a modified Krebs-Henseleit buffer (KHB; in mM: 118 NaCl, 4.7 KCl, 1.25 CaCl2), 1.66 MgSO4, 24.88 NaHCO3, 1.18 KH2PO4, 5.55 glucose, and 2.0 Na-pyruvate). A balloon was placed in the LV through the left atrium and left ventricular diastolic pressure was set to ˜8 mmHg at initiation. The heart was perfused with modified Krebs-Henseleit buffer for 30 min to stabilize and then hemodynamics measurements were recorded. Myocardial temperature was maintained at 37° C. LabChart software (ADInstruments inc., Colorado Springs, CO) was used to record ventricular function, perfusion pressures, cardiac chamber temperature and myocardial temperature. After perfusing the heart for 60 minutes, the heart was removed from the ex-vivo perfusion apparatus for specimen collection. Tissue was immediately placed in liquid N2 or treated with 4% formalin.

Irg1 = Irg1 mRNA transcript expression in preserved murine donor hearts; design: species or system mouse; details: 16 hours preservation without reperfusion and during ex vivo perfusion
Procedure: as §2

pig hearts = experiment: Porcine ex-vivo heart perfusion after cold preservation
Procedure: as §1
Pig hearts underwent ex-vivo perfusion after preservation for 4 or 10 hours. Approval for human heart procurement was obtained from the University of Michigan Institutional Review Board (HUM00131275). Human donor hearts from deceased brain death donors were procured as per standard clinical protocols from the Gift of Life Michigan (GOLM) organ procurement facility. Myocardial biopsies (˜5 mm^3) of LV were biopsied immediately after cardioplegic arrest (0 h) and after 8 hours (8 h) of cold storage in a cooler containing ice. […] Causes of death were stroke (n=4), trauma (n=2), drug overdose (n=1), and cardiac arrest (n=1). Heart tissue were either fixed in formalin or snap frozen in liquid N2 for later analysis.
For ex-vivo pig heart perfusion (FIG. 15), the ascending aorta is connected to the arterial perfusion cannula and the left atrium is closed by suturing shut the pulmonary veins. A pressure monitoring catheter and left atrial infusion catheter were then placed into the left atrial cavity and secured. The Miller conductance catheter was introduced into the left ventricular cavity for measurement of ventricular performance parameters. The Radnoti constant perfusion pressure apparatus (ADInstruments Inc., Colorado Springs, CO) was utilized for ex-vivo large animal heart perfusion. Approximately 1 liter of previously collected autologous blood was added to ˜3.5 liters of Krebs buffer and this was initially infused at 24° C. with gradual warming to 37° C. After air was removed from the perfusion system, the ascending aorta and coronaries were retrograde perfused through the arterial cannula at physiological pressure ˜80 mmHg, leading to cardiac reanimation. The perfusion pressure was kept constant at ˜80 mmHg so LV contraction would need to overcome this afterload for cardiac output. Shockable arrhythmias such as ventricular tachycardia, ventricular fibrillation, supraventricular tachycardia were electrically cardioverted to sinus rhythm by delivery of 10 or 20 joules of energy. Cardiac performance was assessed in “resting” and “working” modes (60, 61). The left atrial pressure in resting mode was typically 0-1 mmHg. To assess cardiac hemodynamics in “working mode”, perfusate was infused into the left atrium at 4-10 mmHg at the 4-hour time point for LV loading and cardiac output assessment. Because cardiac performance was highly impaired as expected at the 10-hour time point, the left atrium was loaded to a pressure of up to 15 mmHg to assess cardiac output. At 1 hour intervals, both arterial perfusate and coronary sinus blood were collected for monitoring and analysis. Oxygen pressure was kept at about pO2 150-200 mmHg while pCO2 was kept at about 35-40 mmHg. Arterial pH was maintained at 7.35-7.40 by buffering with 5% CO2 during gas exchange. The heart was perfused ex vivo for 3 hours and then arrested with 4° C. HTK solution for specimen collection in formalin or snap frozen with liquid N2. The heart was weighed at the time of procurement and at the end of perfusion. […]

[2] = cited from earlier work
[3] = ex vivo perfused hearts compared to HTK alone

CCCC(CCC)C(=O)O [VPA, 2-Propyl-pentanoic acid]
histone acetylation (H3K9, H3K27) after prolonged cardiac preservation [1]: maintained
ex vivo contractility (murine donor hearts; HTK±VPA, cold preservation up to 16 hours): improve
cardioprotective effects of VPA with deficiency in Irg1 (murine donor hearts; Irg1−/− hearts, ex vivo perfusion and syngeneic transplant models): reduced
effect of conditional Irg1 deficiency in myeloid cells on VPA's cardioprotective effects on contractility or relaxation (murine donor hearts; LysM-Cre hearts, ex vivo perfusion model): did not impact
VPA concentration with peak cardioprotective effect (murine donor hearts; titration 5, 10 and 20 mM in HTK, 16 hours preservation): 10 mM
Irg1 transcript expression (Irg1): increased
TnI in arterial perfusate (pig hearts): reduced
cleaved caspase 3 expression (pig hearts): decreased
heart weight (pig hearts): no difference
oxygen consumption (pig hearts): higher
total Nrf2 protein in cardiac tissue (pig hearts): increased
NRF2 nuclear translocation (pig hearts; 4 and 10 hours of preservation): induced
donor heart contractility in working mode (pig hearts; 4 h and 10 h preservation): improved
donor heart relaxation in working mode (pig hearts; 4 h and 10 h preservation): improved
oxidative DNA damage via 8-OHdG staining (pig hearts; 10 h preservation): greatly reduced
improvement of cardiac output (CO) compared with HTK alone (pig hearts; after 4 h preservation): about 25%
aortic pulse pressure magnitude (systolic minus diastolic pressure) (pig hearts; after 10 h of preservation): greater
improvement of cardiac output (CO) compared with HTK alone (pig hearts; after 10 h of preservation): 100%
systolic pressure in the left ventricular cavity (pig hearts; after 10 h of preservation): higher
perfusate concentration of IL-1β (pig hearts; after 10 hours of preservation): reduced
perfusate concentration of IL-2 (pig hearts; after 10 hours of preservation): reduced
perfusate concentration of IL-6 (pig hearts; after 10 hours of preservation): reduced
perfusate concentration of TNF-α (pig hearts; after 10 hours of preservation): reduced
expression of pro-survival protein BCL2 (pig hearts; after 10 h preservation): increased
expression of IRG1 transcript (pig hearts; [3]): increased
mRNA abundance of IL1B (pig hearts; [3]): decreased
mRNA abundance of IL6 (pig hearts; [3]): decreased
mRNA abundance of TNFA (pig hearts; [3]): decreased
oxygen consumption compared to HTK alone (pig hearts; pig hearts preserved for 10 h): greater
water solubility [2]: water soluble
